Values belong to the compound of their own block, whether it stands above or below them.
Experiments:
[1] = test system: mobilized peripheral blood CD34+ cells; assay: CD34+ expansion assay; format: cell-based; conditions: Homo sapiens; read-out: CD34 Frequency EC50
Experimental: Approximately 3,000 mobilized peripheral blood CD34+ cells were plated per well in 384-well plate at a final volume of 45 μL in HSC growth media (SFEM supplemented with Pen/Strep, 50 ng/mL FLT3L, TPO, SCF and IL-6). Serial dilutions were made in HSC growth media with a top final concentration of 10 μM. 5 μL 10× stock was added to each well. The plate was gently tapped on all sides and incubated for 7 days at 37° C./5% CO2. On day 7, the media was aspirated on a Biotek plate washer and 30 μL staining solution was added to the cells with antibodies against CD34-PE, CD90-APC, CD45RA-PE-CF594 in PBS. Cells were washed once in PBS and resuspended in 80 μL for final volume. 40 μL was acquired by flow cytometry (BD Celesta).

[2] = biological target: T1, aryl hydrocarbon receptor (AHR) (Homo sapiens, UniProt P35869); assay: DRE-Luciferase reporter high-throughput screen (AHR antagonist, VAF347-activated)
T1 sequence (P35869 11-848): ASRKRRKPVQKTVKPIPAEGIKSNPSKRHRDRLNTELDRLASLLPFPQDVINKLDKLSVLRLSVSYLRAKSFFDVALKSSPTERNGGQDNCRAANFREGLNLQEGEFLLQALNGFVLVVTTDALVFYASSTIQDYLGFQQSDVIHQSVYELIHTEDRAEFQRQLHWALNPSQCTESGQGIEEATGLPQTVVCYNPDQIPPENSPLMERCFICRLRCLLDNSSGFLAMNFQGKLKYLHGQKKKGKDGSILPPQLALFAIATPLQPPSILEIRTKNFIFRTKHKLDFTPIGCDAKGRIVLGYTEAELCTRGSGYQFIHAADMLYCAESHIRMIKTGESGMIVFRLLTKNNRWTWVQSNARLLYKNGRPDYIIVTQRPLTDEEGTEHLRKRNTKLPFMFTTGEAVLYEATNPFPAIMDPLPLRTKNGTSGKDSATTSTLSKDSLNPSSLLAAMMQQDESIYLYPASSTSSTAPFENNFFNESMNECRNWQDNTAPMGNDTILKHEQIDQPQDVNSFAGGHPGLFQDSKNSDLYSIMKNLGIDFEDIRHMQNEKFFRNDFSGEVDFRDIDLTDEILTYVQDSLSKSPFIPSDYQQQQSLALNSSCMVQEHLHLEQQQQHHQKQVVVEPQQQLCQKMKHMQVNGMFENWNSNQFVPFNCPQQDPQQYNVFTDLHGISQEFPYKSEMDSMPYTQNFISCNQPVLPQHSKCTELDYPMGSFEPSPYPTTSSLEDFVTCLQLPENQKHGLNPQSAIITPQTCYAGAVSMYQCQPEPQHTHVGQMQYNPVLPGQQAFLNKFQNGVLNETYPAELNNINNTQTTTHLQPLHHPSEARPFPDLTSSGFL

SMILES: CCCCOc1ccc(C(=O)Nc2cccc(C(=O)OCC(C)C)c2)cc1 [compound 9]
EC50 [1]: ≥ 5000 nM | IC50 [2]: 500 to 1000 nM

SMILES: Cc1ccn2c(-c3csc(Nc4ccccn4)n3)c(C)nc2c1 [compound 60]
EC50 [1]: 1000 to 5000 nM | IC50 [2]: 500 to 1000 nM

SMILES: Cc1ccc(NC(=O)c2cccc(OCc3c(C)noc3C)c2)c(Cl)c1 [compound 3]
EC50 [1]: 500 to 1000 nM | IC50 [2]: 200 to 500 nM

SMILES: Nc1c(-c2nc(-c3ccccc3)cs2)nnn1-c1ccc(F)cc1 [compound 53]
EC50 [1]: 500 to 1000 nM | IC50 [2]: 500 to 1000 nM

SMILES: Cc1ccc(C)c(NC(=O)c2nc3c(s2)CCCN3c2ccc(C)nn2)c1 [compound 29]
EC50 [1]: 1000 to 5000 nM | IC50 [2]: 500 to 1000 nM

SMILES: Cc1cn2nc(NCCOc3ccc(F)cc3)sc2n1 [compound 70]
EC50 [1]: 500 to 1000 nM | IC50 [2]: 200 to 500 nM

SMILES: Cc1ccc(NC(=O)c2sc3nc(N)c(C#N)cc3c2N)cc1Cl [compound 19]
EC50 [1]: < 500 nM | IC50 [2]: < 200 nM

SMILES: Cc1ccc(Nc2ccc(NC(=O)c3ccc(-c4ccccc4)cc3)cc2)nn1 [compound 5]
EC50 [1]: 1000 to 5000 nM | IC50 [2]: 500 to 1000 nM

SMILES: O=C(Nc1ccccc1Cl)c1cnc(-c2noc3ccccc23)s1 [compound 23]
EC50 [1]: 500 to 1000 nM | IC50 [2]: 200 to 500 nM

SMILES: Cc1nn2cc(-c3ccc(-c4ccccc4)cc3)nc2s1 [compound 69]
EC50 [1]: 500 to 1000 nM | IC50 [2]: 200 to 500 nM

SMILES: COc1c(C)cccc1C(=O)Nc1cc(-c2ccc(F)cc2)nn1C [compound 11]
EC50 [1]: 1000 to 5000 nM | IC50 [2]: 500 to 1000 nM

SMILES: CCc1cc(C(=O)Nc2ccc(SC)cc2)sc1C [compound 38]
EC50 [1]: 1000 to 5000 nM | IC50 [2]: 500 to 1000 nM

SMILES: Cc1ccc2nc3sc(C(=O)Nc4cccc(C(F)(F)F)c4)cc3c(=O)n2c1 [compound 15]
EC50 [1]: < 500 nM | IC50 [2]: < 200 nM

SMILES: COc1cc(C(F)(F)F)ccc1C(=O)Nc1cccc(N2CCOCC2)c1 [compound 1]
EC50 [1]: 500 to 1000 nM | IC50 [2]: 200 to 500 nM

SMILES: c1ccc(-c2nnc(-c3csc(-c4cccnc4)n3)o2)cc1 [compound 57]
EC50 [1]: 500 to 1000 nM | IC50 [2]: 200 to 500 nM

SMILES: Cc1ccc(NC(=O)c2cn3ccccc3n2)cc1 [compound 21]
EC50 [1]: 500 to 1000 nM | IC50 [2]: 200 to 500 nM

SMILES: Cc1cccc(C(=O)Nc2ccc(-c3nc4ncccc4o3)cc2)c1 [compound 4]
EC50 [1]: 500 to 1000 nM | IC50 [2]: 500 to 1000 nM

SMILES: COc1ccc(NC(=O)c2nnn(-c3cc(C)cc(C)c3)c2C)c(OC)c1 [compound 22]
EC50 [1]: 500 to 1000 nM | IC50 [2]: 500 to 1000 nM

SMILES: CCCSc1nc(N)c(C(=O)Nc2ccccc2)cc1C#N [compound 16]
EC50 [1]: < 500 nM | IC50 [2]: 200 to 500 nM

SMILES: Cc1noc(C)c1C(=O)Nc1ccc(-c2nc3ccccc3o2)cc1 [compound 25]
EC50 [1]: 500 to 1000 nM | IC50 [2]: 200 to 500 nM

Other lines, results leading:

EC50 [1]: 1000 to 5000 nM | IC50 [2]: 500 to 1000 nM
SMILES: FC(F)(F)c1ccnc(N/N=C/c2ccc(Cl)cc2Cl)n1 [compound 114]

EC50 [1]: 1000 to 5000 nM | IC50 [2]: 500 to 1000 nM
SMILES: Clc1ccc(COc2ccc(-c3ccnc4ccnn34)cc2)cc1 [compound 104]

EC50 [1]: 500 to 1000 nM | IC50 [2]: 500 to 1000 nM
SMILES: Cc1nn2c(C)c(C(=O)OC(C)C)nnc2c1-c1ccccc1 [compound 106]

EC50 [1]: ≥ 5000 nM | IC50 [2]: 500 to 1000 nM
SMILES: N#Cc1cccc(C#N)c1N1CCN(C(=O)Nc2ccccc2)CC1 [compound 79]

EC50 [1]: 1000 to 5000 nM | IC50 [2]: 500 to 1000 nM
SMILES: COc1ccccc1-c1nnc(SCc2cccc3ccccc23)n1C [compound 96]

EC50 [1]: 1000 to 5000 nM | IC50 [2]: 200 to 500 nM
SMILES: O=[N+]([O-])c1ccc(/C=N/Nc2nccc(-c3cccnc3)n2)cc1 [compound 113]

EC50 [1]: < 500 nM | IC50 [2]: 200 to 500 nM
SMILES: N#Cc1cn(-c2ccc(Cl)cc2)nc1C(=O)c1cccs1 [compound 91]

EC50 [1]: < 500 nM | IC50 [2]: 500 to 1000 nM
SMILES: N#Cc1ccc(-c2ccncc2)nc1SCc1ccccn1 [compound 89]

EC50 [1]: 1000 to 5000 nM | IC50 [2]: 200 to 500 nM
SMILES: Cc1nc(-c2ccccc2)sc1C(=O)N/N=C/c1cc2ccccc2o1 [compound 115]

EC50 [1]: 1000 to 5000 nM | IC50 [2]: 500 to 1000 nM
SMILES: Cc1ccc(-c2nc(-c3cc(C)on3)no2)cc1 [compound 122]

EC50 [1]: 500 to 1000 nM | IC50 [2]: < 200 nM
SMILES: Fc1ccc(-c2cc(-c3ccccc3)nc(-n3cccn3)n2)cc1 [compound 82]

EC50 [1]: < 500 nM | IC50 [2]: 200 to 500 nM
SMILES: CCCc1cc(C(N)=O)c(NC(=O)COc2ccccc2C)s1 [compound 119]

EC50 [1]: ≥ 5000 nM | IC50 [2]: 500 to 1000 nM
SMILES: Clc1ccc(-c2nc(-c3cnccn3)no2)cc1 [compound 140]

EC50 [1]: ≥ 5000 nM | IC50 [2]: 500 to 1000 nM
SMILES: Fc1ccc(/C=N\N2CCN(c3ccccn3)CC2)cc1 [compound 77]

EC50 [1]: ≥ 5000 nM | IC50 [2]: 500 to 1000 nM
SMILES: Cc1ccc2nc(-c3ccc(NC(=O)COC(=O)c4ccc(O)cc4O)cc3)sc2c1 [compound 138]

EC50 [1]: < 500 nM | IC50 [2]: 500 to 1000 nM
SMILES: Cc1ccc(-n2nnc(-c3nc4ccccc4s3)c2N)cc1 [compound 94]

EC50 [1]: 500 to 1000 nM | IC50 [2]: 200 to 500 nM
SMILES: CSc1ccc(N2C(=O)C3Cc4ccccc4CN3C2=O)cc1 (centres unmarked) [compound 120]

EC50 [1]: 1000 to 5000 nM | IC50 [2]: 500 to 1000 nM
SMILES: Cc1ccccc1CS(=O)(=O)N1CCc2ccccc2C1 [compound 131]

EC50 [1]: < 500 nM | IC50 [2]: < 200 nM
SMILES: Cc1noc(C)c1COc1cccc(C(=O)/N=c2/sccn2C)c1 [compound 118]

EC50 [1]: 1000 to 5000 nM | IC50 [2]: 500 to 1000 nM
SMILES: CC(C)OCCCn1c(=O)c(-c2cccs2)nc2cc(S(=O)(=O)N3CCOCC3)ccc21 [compound 128]

EC50 [1]: 1000 to 5000 nM | IC50 [2]: 500 to 1000 nM
SMILES: O=C(N/N=C\c1ccccc1C(F)(F)F)c1n[nH]c2c1CCc1ccccc1-2 [compound 99]

EC50 [1]: 500 to 1000 nM | IC50 [2]: 200 to 500 nM
SMILES: CC(C)c1cc(-c2nnc3sc(-c4ccccn4)nn23)[nH]n1 [compound 72]

EC50 [1]: 1000 to 5000 nM | IC50 [2]: 500 to 1000 nM
SMILES: CCN(CC)C(=O)c1nc2c(s1)CCN(c1ncccn1)CC2 [compound 133]

EC50 [1]: 1000 to 5000 nM | IC50 [2]: 500 to 1000 nM
SMILES: CCC(=O)Nc1ccc(N2Cc3ccccc3C2=O)cc1 [compound 135]

EC50 [1]: 1000 to 5000 nM | IC50 [2]: 500 to 1000 nM
SMILES: COc1cc([N+](=O)[O-])ccc1NC(=O)Nc1nc2c(s1)CCCC2 [compound 121]

EC50 [1]: 1000 to 5000 nM | IC50 [2]: 200 to 500 nM
SMILES: O=c1[nH]c(NC2CCCC2)nc2nccc(-c3cccs3)c12 [compound 129]

Reference: patent publication US20210220408A1, “ARYL HYDROCARBON RECEPTOR ANTAGONISTS AND METHODS OF USE” (Magenta Therapeutics Inc., priority 2018, published 2021)
